Values of other authors, collected in patent US6872523B1, “Materials and methods for molecular detection of clinically relevant pathogenic fungal species” (The Board of Regents of the University of Nebraska, priority 2000, dated 2005).

Columns and labels:
[1] = tested on: A. fumigatus; conditions: low end of the reported MIC range
[2] = tested on: A. niger; conditions: low end of the reported MIC range
[3] = tested on: A. flavus; conditions: high end of the reported MIC range
[4] = tested on: A. terreus isolates; conditions: share of A. terreus isolates resistant to AmB (refs 10, 17, 22)
[5] = tested on: A. nidulans; conditions: high end of the reported MIC range

- AmB MIC [1]: 0.5 µg/mL
- AmB MIC [2]: 0.5 µg/mL
- AmB MIC [3]: 16 µg/mL
- AmB MIC [5]: 16 µg/mL
SMILES: C[C@@H]1[C@H](O)[C@@H](C)/C=C/C=C/C=C/C=C/C=C/C=C/C=C/[C@H](O[C@@H]2O[C@H](C)[C@@H](O)[C@H](N)[C@@H]2O)C[C@@H]2O[C@](O)(C[C@@H](O)C[C@@H](O)[C@H](O)CC[C@@H](O)C[C@@H](O)CC(=O)O[C@H]1C)C[C@H](O)[C@H]2C(=O)O [AmB, amphotericin B]
- isolates reported as resistant [4]: over 95%
